Columns and labels:
Assay type in all cases: in vivo
Setaria faberi (SETFA) [1] = assay: Post-emergence herbicidal glasshouse test on Setaria faberi; settings: post-emergence; 1000 g/h; evaluated after 13 days
How it was run: (§1)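 Scoring scale: 5=80-100%, 4=60-79%, 3=40-59%, 2=20-39%, 1=0-19% damage, assessed on day 13. Compound sprayed at 1000 g/h on soil-grown plants (day 1 pre-, day 8 post-emergence) kept at 24/16 °C, 14 h light.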

Solanum nigrum (SOLNI) [2] = assay: Post-emergence herbicidal glasshouse test on Solanum nigrum; settings: post-emergence; 1000 g/h; evaluated after 13 days
How it was run: as §1

[3] = tested on: Echinochloa crus-galli (ECHCG); assay: Post-emergence herbicidal glasshouse test on Echinochloa crus-galli; settings: post-emergence; 1000 g/h; evaluated after 13 days
How it was run: as §1

[4] = tested on: Ipomoea hederacea (IPOHE); assay: Post-emergence herbicidal glasshouse test on Ipomoea hederacea; settings: post-emergence; 1000 g/h; evaluated after 13 days
How it was run: as §1

Solanum nigrum (SOLNI) [5] = assay: Pre-emergence herbicidal glasshouse test on Solanum nigrum; settings: pre-emergence; 1000 g/h; evaluated after 13 days
How it was run: as §1

[6] = tested on: Amaranthus retoflexus (AMARE); assay: Post-emergence herbicidal glasshouse test on Amaranthus retoflexus; settings: post-emergence; 1000 g/h; evaluated after 13 days
How it was run: as §1

[7] = tested on: Alopecurus myosuroides (ALOMY); assay: Post-emergence herbicidal glasshouse test on Alopecurus myosuroides; settings: post-emergence; 1000 g/h; evaluated after 13 days
How it was run: as §1

[8] = tested on: Ipomoea hederacea (IPOHE); assay: Pre-emergence herbicidal glasshouse test on Ipomoea hederacea; settings: pre-emergence; 1000 g/h; evaluated after 13 days
How it was run: as §1

[9] = tested on: Amaranthus retoflexus (AMARE); assay: Pre-emergence herbicidal glasshouse test on Amaranthus retoflexus; settings: pre-emergence; 1000 g/h; evaluated after 13 days
How it was run: as §1

[10] = tested on: Echinochloa crus-galli (ECHCG); assay: Pre-emergence herbicidal glasshouse test on Echinochloa crus-galli; settings: pre-emergence; 1000 g/h; evaluated after 13 days
How it was run: as §1

[11] = tested on: Alopecurus myosuroides (ALOMY); assay: Pre-emergence herbicidal glasshouse test on Alopecurus myosuroides; settings: pre-emergence; 1000 g/h; evaluated after 13 days
How it was run: as §1

Setaria faberi (SETFA) [12] = assay: Pre-emergence herbicidal glasshouse test on Setaria faberi; settings: pre-emergence; 1000 g/h; evaluated after 13 days
How it was run: as §1

Compound	POST Application SETFA herbicidal damage (five point scale) (Setaria faberi (SETFA) [1])	POST Application SOLNI herbicidal damage (five point scale) (Solanum nigrum (SOLNI) [2])	POST Application ECHCG herbicidal damage (five point scale) [3]	POST Application IPOHE herbicidal damage (five point scale) [4]	PRE Application SOLNI herbicidal damage (five point scale) (Solanum nigrum (SOLNI) [5])	POST Application AMARE herbicidal damage (five point scale) [6]	POST Application ALOMY herbicidal damage (five point scale) [7]	PRE Application IPOHE herbicidal damage (five point scale) [8]	PRE Application AMARE herbicidal damage (five point scale) [9]	PRE Application ECHCG herbicidal damage (five point scale) [10]	PRE Application ALOMY herbicidal damage (five point scale) [11]	PRE Application SETFA herbicidal damage (five point scale) (Setaria faberi (SETFA) [12])
COCn1ncc(-c2ccc(Cl)cc2S(C)(=O)=O)c(O)c1=O [Compound 2.005]	5 (5=80-100% damage)	5 (5=80-100% damage)	5 (5=80-100% damage)	5 (5=80-100% damage)	5 (5=80-100% damage)	5 (5=80-100% damage)	5 (5=80-100% damage)	5 (5=80-100% damage)	5 (5=80-100% damage)	5 (5=80-100% damage)	5 (5=80-100% damage)	5 (5=80-100% damage)
COc1ccc(Cl)c(-c2cnn(C)c(=O)c2O)c1 [Compound 1.090]	1 (1=0-19% damage)	2 (2=20-39% damage)	1 (1=0-19% damage)	1 (1=0-19% damage)	1 (1=0-19% damage)	1 (1=0-19% damage)	1 (1=0-19% damage)	1 (1=0-19% damage)	1 (1=0-19% damage)	1 (1=0-19% damage)	1 (1=0-19% damage)	1 (1=0-19% damage)
C=CCn1cccc(-c2cnn(C)c(=O)c2O)c1=O [Compound 9.002]	2 (2=20-39% damage)	5 (5=80-100% damage)	2 (2=20-39% damage)	2 (2=20-39% damage)	1 (1=0-19% damage)	4 (4=60-79% damage)	1 (1=0-19% damage)	1 (1=0-19% damage)	1 (1=0-19% damage)	1 (1=0-19% damage)	1 (1=0-19% damage)	1 (1=0-19% damage)
C#Cn1ncc(-c2ccc(Cl)cc2S(C)(=O)=O)c(O)c1=O [Compound 2.011]	5 (5=80-100% damage)	5 (5=80-100% damage)	5 (5=80-100% damage)	5 (5=80-100% damage)	5 (5=80-100% damage)	5 (5=80-100% damage)	5 (5=80-100% damage)	5 (5=80-100% damage)	5 (5=80-100% damage)	5 (5=80-100% damage)	5 (5=80-100% damage)	5 (5=80-100% damage)
Cn1ncc(-n2cccc(-c3ccc(C(F)(F)F)cc3)c2=O)c(O)c1=O [Compound 7.001]	3 (3=40-59% damage)	4 (4=60-79% damage)	4 (4=60-79% damage)	2 (2=20-39% damage)	1 (1=0-19% damage)	3 (3=40-59% damage)	2 (2=20-39% damage)	1 (1=0-19% damage)	1 (1=0-19% damage)	1 (1=0-19% damage)	1 (1=0-19% damage)	1 (1=0-19% damage)
CC(C)S(=O)(=O)c1ccccc1-c1cnn(C)c(=O)c1O [Compound 1.044]	5 (5=80-100% damage)	5 (5=80-100% damage)	5 (5=80-100% damage)	5 (5=80-100% damage)	5 (5=80-100% damage)	5 (5=80-100% damage)	5 (5=80-100% damage)	1 (1=0-19% damage)	5 (5=80-100% damage)	5 (5=80-100% damage)	5 (5=80-100% damage)	5 (5=80-100% damage)
CC(C)n1ncc(-c2ccc(C(F)(F)F)cc2S(C)(=O)=O)c(O)c1=O [Compound 1.013]	5 (5=80-100% damage)	5 (5=80-100% damage)	5 (5=80-100% damage)	5 (5=80-100% damage)	5 (5=80-100% damage)	5 (5=80-100% damage)	5 (5=80-100% damage)	4 (4=60-79% damage)	5 (5=80-100% damage)	5 (5=80-100% damage)	5 (5=80-100% damage)	5 (5=80-100% damage)
